Test results taken from patent US9556153B1, “JAK1 inhibitors” (Eli Lilly and Company, priority 2015, dated 2017).

Tests used:
JAK1 = JAK1 (Homo sapiens, UniProt P23458); experiment: Phospho-STAT3 (Tyr705) ACUMEN H1975-JAK1 cell-based assay; design: endogenous in cells; settings: H1975 NSCLC cells, 4 hr; n=1; read-out: IC50, pSTAT3 (Tyr705) in H1975 cells
Protocol: Phospho-STAT3 (Tyr705) ACUMEN Protocol—H1975-JAK1 Cell-Based Assay
An H1975-JAK1 cellular assay is used to confirm the potency of test compounds in NSCLC cells in which the STAT3 pathway is activated by autocrine IL-6 loop. […]
On Day 2, perform the following steps sequentially: wash 2 times with 100 μL PBS; add 50 μL of secondary antibody (1:1000; Ab2° goat anti-mouse IgG); incubate for 1 hour at RT in the dark; wash 2 times with 100 μL PBS; add 100 μL of Propidium Iodide (1:1000 in PBS from commercial solution) containing RNAse (50 μg/mL in PBS); seal plates with transparent film and incubate at RT for 2 hours before reading; read on Acumen Explorer (set parameter based on positive and negative well). […]

[1] = system: Ba/F3 cells expressing human mtJAK1 (S729C); experiment: BaF3 Mutant JAK-1 (S729C) Clone 12 Proliferation Assay; assay type: cell-based, Murine; settings: BaF3, 72 h; 3 day incubation, Cell Titer Glo; n=4
Protocol: BaF3 Mutant JAK-1 (S729C) Clone 12 Proliferation Assay
The purpose of this assay is to determine the inhibitory activity of JAK-1 specific inhibitors using the BaF3 mutant JAK-1 (S729C) Clone 12 proliferation assay.
mtJAK1 (S729C) expressing cell line is created by transducing Ba/F3 cells (Murine pro-B-cells) with a retrovirus expressing human mtJAK1 (S729C)-pQCXIN vector DNA. Single cell cloning is performed to select Ba/F3 cells expressing highest levels of mtJAK1 (S729C) by serial dilution. BaF3 mutant JAK-1 (S729C) suspension cells are cultured and maintained in (Gibco RPMI 1640 cat# A10491-01) containing 10% Hi-FBS (Hyclone cat#10082-047), 1 μg/ml puromycin dihydrochloride (Sigma cat#9620), 1.0 mg/mL G418 sulfate (Corning ref#30-234-CI), referred to as R10+ from now on.
Proliferation assays are performed in culture medium without selection and from now on will be referred to as (R10−). Briefly, cultured cells are decanted, centrifuged and reconstituted in 10 mL of R10− and counted using a Beckman Coulter Vi-Cell. Cells are further diluted to 2e4/mL in R10− and plated in a 96 well white opaque assay plates (Costar cat#3610) at 1×10^3 cells (50 μls) per well. […] Luminescence is then read on a Perkin Elmer Victor2 using a preset program for luminescence at 0.1 second. […]

JAK1, sequence (P23458 whole entry): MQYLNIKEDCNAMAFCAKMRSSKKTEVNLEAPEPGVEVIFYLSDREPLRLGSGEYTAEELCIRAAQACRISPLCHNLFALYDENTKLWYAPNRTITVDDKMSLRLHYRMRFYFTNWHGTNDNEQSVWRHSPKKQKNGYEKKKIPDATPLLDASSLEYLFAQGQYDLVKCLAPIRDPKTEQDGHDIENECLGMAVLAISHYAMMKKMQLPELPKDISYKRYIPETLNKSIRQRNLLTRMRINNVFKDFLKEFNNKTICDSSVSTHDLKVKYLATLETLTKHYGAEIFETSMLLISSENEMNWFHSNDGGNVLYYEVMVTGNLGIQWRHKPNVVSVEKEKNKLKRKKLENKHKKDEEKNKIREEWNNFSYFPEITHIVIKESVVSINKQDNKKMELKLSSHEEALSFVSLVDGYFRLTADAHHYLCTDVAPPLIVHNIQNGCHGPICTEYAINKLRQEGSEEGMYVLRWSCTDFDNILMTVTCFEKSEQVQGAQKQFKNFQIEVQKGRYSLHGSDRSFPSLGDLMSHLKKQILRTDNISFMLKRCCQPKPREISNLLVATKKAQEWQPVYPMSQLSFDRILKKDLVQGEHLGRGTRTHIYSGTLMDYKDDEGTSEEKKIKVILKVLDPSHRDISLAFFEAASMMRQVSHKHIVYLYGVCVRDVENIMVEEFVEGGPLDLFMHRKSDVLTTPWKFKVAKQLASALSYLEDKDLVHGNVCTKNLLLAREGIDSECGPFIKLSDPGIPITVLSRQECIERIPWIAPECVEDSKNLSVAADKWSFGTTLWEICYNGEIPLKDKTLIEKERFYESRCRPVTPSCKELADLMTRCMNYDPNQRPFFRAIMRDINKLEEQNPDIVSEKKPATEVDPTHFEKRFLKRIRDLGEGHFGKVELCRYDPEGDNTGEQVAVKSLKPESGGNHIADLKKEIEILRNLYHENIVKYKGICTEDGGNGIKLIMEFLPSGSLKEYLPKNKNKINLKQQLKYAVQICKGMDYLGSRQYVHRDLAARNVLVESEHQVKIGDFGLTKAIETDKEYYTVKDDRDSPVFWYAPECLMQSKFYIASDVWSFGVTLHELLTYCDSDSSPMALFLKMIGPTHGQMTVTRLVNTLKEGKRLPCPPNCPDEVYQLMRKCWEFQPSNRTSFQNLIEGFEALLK

SMILES: Cc1cc(Nc2cc(O[C@H]3CC[C@@H](NC[C@@H](O)C(F)(F)F)CC3)cc3c2ncn3C)nn1C [Example 1, (2R)-3-{[cis-4-({4-[(1,5-Dimethyl-1H-pyrazol-3-yl)amino]-1-methyl-1H-benzimidazol-6-yl}oxy)cyclohexyl]amino}-1,1,1-trifluoropropan-2-ol]
- IC50 (JAK1): 297 nM
- IC50 [1]: 956 nM
